Laboratory results from patent US12622910B2, “Inhibitors of Bruton's tyrosine kinase and methods of their use” (Janssen Pharmaceutica NV, priority 2021, dated 2026).
Where two headings read alike, the source gives them in different places.

How the values were obtained:
BTK = BTK (Homo sapiens, UniProt Q06187); assay: ActivX KiNativ native kinase profiling, Ramos cell lysates; assay type: binding; parameters: endogenous in cells
Description: (§1) RESULTS AND DISCUSSION—Selectivity—The compound of Formula (III) was evaluated in three selectivity panels to assess the potential for off-target pharmacology (Table 8). […] The kinase off-target profile of The compound of Formula (III) was assessed in a full human wild-type panel using radiometric kinase activity assays (KinaseProfiler™ and IC50Profiler™; Eurofins Scientific) (Table 9; FIG. 23). The compound of Formula (III) inhibited 4/278 kinases >50% at 1 micromolar, identifying BTK and the three other kinases having analogous Cys residues with the potential for covalent inhibition (BMX, TEC, BLK). […]. The cellular kinase selectivity of The compound of Formula (III) was established in native Ramos B cell kinome assays (KiNativ™; ActivX) confirmed BTK as the primary target with inhibition of BLK and TEC inhibition detected (Table 10).

A1 (h) = A1 (h) (Homo sapiens, UniProt P30542); assay: Receptor panel, Study 1; assay type: binding
Description: as §1

beta 1 (h) = beta 1 (h) (Homo sapiens, UniProt P08588); assay: Receptor panel, Study 1; assay type: binding
Description: as §1

NK2 (h) = NK2 (h) (Homo sapiens, UniProt P21452); assay: Receptor panel, Study 1; assay type: binding
Description: as §1

AT1 (h) = AT1 (h) (Homo sapiens, UniProt P30556); assay: Receptor panel, Study 1; assay type: binding
Description: as §1

Vla(h) = Vla(h) (Homo sapiens, UniProt P37288); assay: Receptor panel, Study 1; assay type: binding
Description: as §1

5-HT Transporter (h) = 5-HT Transporter (h) (Homo sapiens, UniProt P31645); assay: Receptor panel, Study 1; assay type: binding
Description: as §1

B2 (h) = B2 (h) (Homo sapiens, UniProt P30411); assay: Receptor panel, Study 1; assay type: binding
Description: as §1

Cl^− channel = assay: Receptor panel, Study 1; assay type: binding
Description: as §1

M2 (h) = M2 (h) (Homo sapiens, UniProt P08172); assay: Receptor panel, Study 1; assay type: binding
Description: as §1

CCR1 (h) = CCR1 (h) (Homo sapiens, UniProt P32246); assay: Receptor panel, Study 1; assay type: binding
Description: as §1

DA transporter (h) = DA transporter (h) (Homo sapiens, UniProt Q01959); assay: Receptor panel, Study 1; assay type: binding
Description: as §1

A3 (h) = A3 (h) (Homo sapiens, UniProt P0DMS8); assay: Receptor panel, Study 1; assay type: binding
Description: as §1

D2S (h) = D2S (h) (Homo sapiens, UniProt P14416); assay: Receptor panel, Study 1; assay type: binding
Description: as §1

NE transporter (h) = NE transporter (h) (Homo sapiens, UniProt P23975); assay: Receptor panel, Study 1; assay type: binding
Description: as §1

A2A (h) = A2A (h) (Homo sapiens, UniProt P29274); assay: Receptor panel, Study 1; assay type: binding
Description: as §1

5-HT2A (h) = 5-HT2A (h) (Homo sapiens, UniProt P28223); assay: Receptor panel, Study 1; assay type: binding
Description: as §1

CCKA (h) (CCK1) = CCKA (h) (CCK1) (Homo sapiens, UniProt P32238); assay: Receptor panel, Study 1; assay type: binding
Description: as §1

VIP1 (h) (VPAC1) = VIP1 (h) (VPAC1) (Homo sapiens, UniProt P32241); assay: Receptor panel, Study 1; assay type: binding
Description: as §1

NT1 (h) (NTS1) = NT1 (h) (NTS1) (Homo sapiens, UniProt P30989); assay: Receptor panel, Study 1; assay type: binding
Description: as §1

ADRB1 (Adrenergic beta) = ADRB1 (Adrenergic beta) (Homo sapiens, UniProt P08588); assay: Receptor panel, Study 3 (agonist/antagonist); assay type: biochemical; details: n = 2
Description: as §1

D2L (Dopamine 2L) = D2L (Dopamine 2L) (Homo sapiens, UniProt P14416); assay: Receptor panel, Study 3 (agonist/antagonist); assay type: biochemical; details: n = 2
Description: as §1

ADRB2 (Adrenergic beta) = ADRB2 (Adrenergic beta) (Homo sapiens, UniProt P07550); assay: Receptor panel, Study 3 (agonist/antagonist); assay type: biochemical; details: n = 2
Description: as §1

DOP (Opioid delta) = DOP (Opioid delta) (Homo sapiens, UniProt P41143); assay: Receptor panel, Study 3 (agonist/antagonist); assay type: biochemical; details: n = 2; comment 20%
Description: as §1

H1 (Histamine H1) = H1 (Histamine H1) (Homo sapiens, UniProt P35367); assay: Receptor panel, Study 3 (agonist/antagonist); assay type: biochemical; details: n = 2
Description: as §1

AhR = assay: Puracyp DRE luciferase-reporter cell line (CYP1A2 induction); assay type: in vitro ADME
Description: To assess the potential of the compound of Formula (III) to be a time-dependent inhibitor of CYP3A, human liver microsomes were preincubated for 30 minutes at 37° C. with the compound of Formula (III) at concentrations up to 10 μM, and CYP3A activity was measured using testosterone as a probe substrate. […] The potential of the compound of Formula (III) to induce CYPs at the transcriptional level was assessed using Puracyp™ DPX2 (CYP3A4, PXR) and DRE (CYP1A2, AhR) luciferase-reporter cell lines; rifampicin and omeprazole were used as positive controls for CYP3A and CYP1A induction, respectively. The activation by the compound of Formula (III) was <20% of positive control values for PXR (6.6% and 14.1% at 1 and 10 μM change, respectively) or AhR (0.1% and 0.3% change, respectively). […] Potential involvement of various CYP isoforms in the metabolism of the compound of Formula (III) was investigated by measuring the parent compound remaining after 1-hour incubation with the compound of Formula (III) (1 μM) with recombinant CYPs (rCYPs) at 100 pmol P450/mL in the presence of 1 mM NADPH at 37° C. The only isozyme that produced notable the compound of Formula (III) turnover with <1% parent remaining after 1-hour incubation was CYP3A4 (FIG. 24). […]

[1] = system: receptors, enzymes, and ion channels; assay: Panel of diverse proteins (54 test targets); assay type: binding; details: 10 μM
Description: as §1

Sequence of BTK (Q06187 whole entry): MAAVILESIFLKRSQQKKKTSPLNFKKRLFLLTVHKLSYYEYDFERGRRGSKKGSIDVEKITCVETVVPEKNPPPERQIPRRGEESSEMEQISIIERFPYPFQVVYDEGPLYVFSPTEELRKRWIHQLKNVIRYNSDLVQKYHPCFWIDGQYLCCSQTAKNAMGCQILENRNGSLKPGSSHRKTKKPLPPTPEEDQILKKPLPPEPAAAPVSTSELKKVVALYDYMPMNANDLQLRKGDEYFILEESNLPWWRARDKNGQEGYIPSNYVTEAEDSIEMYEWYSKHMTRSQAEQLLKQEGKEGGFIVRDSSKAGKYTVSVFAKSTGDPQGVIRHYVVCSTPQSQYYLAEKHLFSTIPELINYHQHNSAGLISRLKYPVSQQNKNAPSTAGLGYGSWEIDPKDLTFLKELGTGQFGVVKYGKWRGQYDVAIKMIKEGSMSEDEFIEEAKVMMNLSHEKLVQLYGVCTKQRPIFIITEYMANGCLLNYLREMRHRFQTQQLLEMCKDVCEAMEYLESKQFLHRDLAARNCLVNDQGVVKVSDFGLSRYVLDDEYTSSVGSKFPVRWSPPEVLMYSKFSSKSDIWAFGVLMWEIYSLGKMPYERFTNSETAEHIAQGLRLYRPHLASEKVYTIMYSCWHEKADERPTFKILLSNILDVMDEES
Sequence of H1 (Histamine H1) (P35367 whole entry): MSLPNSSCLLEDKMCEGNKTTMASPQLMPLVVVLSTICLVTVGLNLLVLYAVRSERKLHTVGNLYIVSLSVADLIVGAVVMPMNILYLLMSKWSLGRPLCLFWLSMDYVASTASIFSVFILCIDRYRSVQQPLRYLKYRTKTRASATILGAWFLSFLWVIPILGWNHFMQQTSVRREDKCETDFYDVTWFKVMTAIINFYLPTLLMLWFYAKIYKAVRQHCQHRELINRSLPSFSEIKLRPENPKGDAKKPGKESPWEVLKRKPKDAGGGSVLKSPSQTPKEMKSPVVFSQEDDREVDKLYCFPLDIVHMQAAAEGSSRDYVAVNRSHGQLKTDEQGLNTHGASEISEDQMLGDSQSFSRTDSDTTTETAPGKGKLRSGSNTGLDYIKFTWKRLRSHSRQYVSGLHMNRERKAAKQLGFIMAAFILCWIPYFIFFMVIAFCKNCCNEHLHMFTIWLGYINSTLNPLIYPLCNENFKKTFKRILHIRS
Sequence of D2L (Dopamine 2L) (P14416 whole entry): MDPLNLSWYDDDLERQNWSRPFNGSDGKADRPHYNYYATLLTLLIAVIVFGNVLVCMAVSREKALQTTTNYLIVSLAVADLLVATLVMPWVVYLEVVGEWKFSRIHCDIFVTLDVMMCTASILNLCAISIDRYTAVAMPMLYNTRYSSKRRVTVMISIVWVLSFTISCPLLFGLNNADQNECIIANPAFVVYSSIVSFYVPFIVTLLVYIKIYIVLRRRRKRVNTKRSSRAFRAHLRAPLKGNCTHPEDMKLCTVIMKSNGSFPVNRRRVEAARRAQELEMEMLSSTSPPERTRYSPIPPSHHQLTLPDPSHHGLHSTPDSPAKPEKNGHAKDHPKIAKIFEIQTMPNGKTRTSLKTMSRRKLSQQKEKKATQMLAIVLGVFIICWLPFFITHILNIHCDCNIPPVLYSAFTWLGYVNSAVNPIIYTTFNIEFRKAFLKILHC
Sequence of CCR1 (h) (P32246 whole entry): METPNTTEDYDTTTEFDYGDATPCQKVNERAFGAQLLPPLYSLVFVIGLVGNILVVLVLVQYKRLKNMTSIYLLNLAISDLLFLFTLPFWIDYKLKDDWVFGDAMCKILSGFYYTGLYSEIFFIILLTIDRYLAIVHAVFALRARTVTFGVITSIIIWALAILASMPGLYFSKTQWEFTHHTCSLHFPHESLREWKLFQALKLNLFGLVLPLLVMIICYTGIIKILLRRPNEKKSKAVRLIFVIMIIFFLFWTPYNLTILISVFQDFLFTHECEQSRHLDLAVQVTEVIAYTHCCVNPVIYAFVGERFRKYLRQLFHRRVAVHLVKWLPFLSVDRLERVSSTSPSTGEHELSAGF
Sequence of D2S (h) (P14416 1-414 isoform P14416-2): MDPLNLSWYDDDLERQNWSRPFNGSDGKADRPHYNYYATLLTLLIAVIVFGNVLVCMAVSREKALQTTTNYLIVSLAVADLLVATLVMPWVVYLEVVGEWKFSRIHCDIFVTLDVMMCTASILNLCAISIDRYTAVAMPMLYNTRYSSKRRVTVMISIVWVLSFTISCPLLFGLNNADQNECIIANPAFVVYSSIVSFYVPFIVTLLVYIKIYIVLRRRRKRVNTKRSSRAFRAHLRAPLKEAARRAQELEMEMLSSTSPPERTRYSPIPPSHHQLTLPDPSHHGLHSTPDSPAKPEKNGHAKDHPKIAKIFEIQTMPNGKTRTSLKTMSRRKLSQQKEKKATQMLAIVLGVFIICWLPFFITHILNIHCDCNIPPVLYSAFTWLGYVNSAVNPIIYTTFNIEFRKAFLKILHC
Sequence of DOP (Opioid delta) (P41143 whole entry): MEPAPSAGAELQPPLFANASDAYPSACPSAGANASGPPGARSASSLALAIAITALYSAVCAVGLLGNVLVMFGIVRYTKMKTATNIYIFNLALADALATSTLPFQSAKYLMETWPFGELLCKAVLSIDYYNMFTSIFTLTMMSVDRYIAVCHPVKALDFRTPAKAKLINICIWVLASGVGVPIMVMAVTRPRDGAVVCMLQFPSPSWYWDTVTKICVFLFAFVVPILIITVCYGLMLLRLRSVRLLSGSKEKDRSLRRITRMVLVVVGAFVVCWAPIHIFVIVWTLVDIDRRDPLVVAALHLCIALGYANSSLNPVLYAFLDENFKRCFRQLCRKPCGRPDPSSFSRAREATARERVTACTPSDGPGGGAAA
Sequence of AT1 (h) (P30556 whole entry): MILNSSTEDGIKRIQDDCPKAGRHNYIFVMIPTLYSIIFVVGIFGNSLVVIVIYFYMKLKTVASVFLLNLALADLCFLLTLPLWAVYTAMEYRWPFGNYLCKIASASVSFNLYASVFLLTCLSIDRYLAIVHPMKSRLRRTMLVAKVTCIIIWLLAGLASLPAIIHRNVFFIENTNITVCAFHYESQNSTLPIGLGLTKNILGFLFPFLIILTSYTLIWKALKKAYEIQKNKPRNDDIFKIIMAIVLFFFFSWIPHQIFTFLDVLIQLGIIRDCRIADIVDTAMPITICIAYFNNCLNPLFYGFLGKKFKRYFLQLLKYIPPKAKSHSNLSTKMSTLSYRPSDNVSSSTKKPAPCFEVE
Sequence of A3 (h) (P0DMS8 whole entry): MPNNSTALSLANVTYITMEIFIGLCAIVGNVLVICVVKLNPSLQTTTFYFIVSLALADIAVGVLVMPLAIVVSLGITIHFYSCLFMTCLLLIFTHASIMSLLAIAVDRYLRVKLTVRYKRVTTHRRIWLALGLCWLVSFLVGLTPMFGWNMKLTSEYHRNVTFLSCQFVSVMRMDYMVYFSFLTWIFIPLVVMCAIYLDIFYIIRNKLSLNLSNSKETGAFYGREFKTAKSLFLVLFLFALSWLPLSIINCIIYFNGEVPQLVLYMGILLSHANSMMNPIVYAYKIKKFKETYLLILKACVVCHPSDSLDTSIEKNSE
Sequence of NK2 (h) (P21452 whole entry): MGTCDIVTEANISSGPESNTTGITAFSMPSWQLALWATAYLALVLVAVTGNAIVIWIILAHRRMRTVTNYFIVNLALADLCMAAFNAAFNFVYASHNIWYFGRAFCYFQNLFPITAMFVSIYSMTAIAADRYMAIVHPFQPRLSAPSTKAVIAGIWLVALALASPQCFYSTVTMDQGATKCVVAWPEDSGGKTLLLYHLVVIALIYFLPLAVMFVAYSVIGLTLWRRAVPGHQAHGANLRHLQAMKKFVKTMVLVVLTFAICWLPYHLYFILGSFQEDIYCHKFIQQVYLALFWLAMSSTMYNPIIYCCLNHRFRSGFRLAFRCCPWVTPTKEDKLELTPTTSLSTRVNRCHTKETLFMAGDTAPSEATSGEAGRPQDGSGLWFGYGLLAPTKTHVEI
Sequence of ADRB2 (Adrenergic beta) (P07550 whole entry, species assumed): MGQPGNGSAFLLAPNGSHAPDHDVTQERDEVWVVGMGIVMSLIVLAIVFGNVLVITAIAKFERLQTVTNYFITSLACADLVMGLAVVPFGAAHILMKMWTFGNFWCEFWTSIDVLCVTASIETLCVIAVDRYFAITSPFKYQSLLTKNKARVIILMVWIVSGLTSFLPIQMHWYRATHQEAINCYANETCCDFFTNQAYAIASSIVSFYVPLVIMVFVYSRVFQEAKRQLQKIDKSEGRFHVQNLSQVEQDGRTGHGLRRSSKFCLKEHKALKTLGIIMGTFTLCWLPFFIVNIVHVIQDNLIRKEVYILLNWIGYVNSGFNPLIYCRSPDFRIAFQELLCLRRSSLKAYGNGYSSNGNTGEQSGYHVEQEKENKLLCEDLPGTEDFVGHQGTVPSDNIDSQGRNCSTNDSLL
Sequence of NT1 (h) (NTS1) (P30989 whole entry): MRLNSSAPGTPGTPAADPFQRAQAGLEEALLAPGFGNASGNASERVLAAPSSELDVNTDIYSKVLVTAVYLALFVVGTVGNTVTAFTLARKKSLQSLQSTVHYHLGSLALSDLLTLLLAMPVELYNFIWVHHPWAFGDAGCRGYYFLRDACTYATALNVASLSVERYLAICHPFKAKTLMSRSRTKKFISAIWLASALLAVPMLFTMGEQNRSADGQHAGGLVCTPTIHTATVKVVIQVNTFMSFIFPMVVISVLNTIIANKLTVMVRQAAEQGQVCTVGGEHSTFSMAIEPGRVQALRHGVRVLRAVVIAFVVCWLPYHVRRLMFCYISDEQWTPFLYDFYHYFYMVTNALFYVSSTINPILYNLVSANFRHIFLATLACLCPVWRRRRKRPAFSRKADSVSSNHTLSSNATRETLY

SMILES: C=CC(=O)N[C@H]1CCC[C@H]1NC(=O)c1sc2nccc3c2c1NC(=O)N3c1cnc(CC(C)C)cc1C (atropisomer, axis not shown) [compound of Formula (III), N-((1R,2S)-2-Acrylamidocyclopentyl)-5-(S)-(6-isobutyl-4-methylpyridin-3-yl)-4-oxo-4,5-dihydro-3H-1-thia-3,5,8-triazaacenaphthylene-2-carboxamide]
- inhibition at 1 µM (BTK; Lys labelling): 90.3%
- inhibition at 1 µM (BTK; activation loop labeling): 94.4%
- inhibition at 10 µM (A1 (h)): < 10%
- inhibition at 10 µM (beta 1 (h)): < 10%
- inhibition at 10 µM (NK2 (h)): 16%
- inhibition at 10 µM (AT1 (h)): < 10%
- inhibition at 10 µM (Vla(h)): < 10%
- inhibition at 10 µM (5-HT Transporter (h)): < 10%
- inhibition at 10 µM (B2 (h)): < 10%
- % Inhibition at 10 μM (Cl^− channel): 25.1%
- inhibition at 10 µM (M2 (h)): < 10%
- inhibition at 10 µM (CCR1 (h)): < 10%
- inhibition at 10 µM (DA transporter (h)): < 10%
- inhibition at 10 µM (A3 (h)): < 10%
- inhibition at 10 µM (D2S (h)): < 10%
- inhibition at 10 µM (NE transporter (h)): < 10%
- inhibition at 10 µM (A2A (h)): < 10%
- inhibition at 10 µM (5-HT2A (h)): < 10%
- inhibition at 10 µM (CCKA (h) (CCK1)): 23.7%
- inhibition at 10 µM (VIP1 (h) (VPAC1)): < 10%
- inhibition at 10 µM (NT1 (h) (NTS1)): < 10%
- IC50 (ADRB1 (Adrenergic beta)): > 12.5 µM
- IC50 (D2L (Dopamine 2L)): > 12.5 µM
- IC50 (ADRB2 (Adrenergic beta)): > 12.5 µM
- IC50 (DOP (Opioid delta)): > 10 µM
- IC50 (H1 (Histamine H1); read-out: Agonist IC50): > 10 µM
- IC50 (H1 (Histamine H1); read-out: Antagonist IC50): > 10 µM
- AhR activation, % of positive control (omeprazole) (AhR; 1 μM): 0.1%
- AhR activation, % of positive control (omeprazole) (AhR; 10 μM): 0.3%
- binding in off-target panel [1]: did not bind >50% at 10 μM for any of the 54 test targets
